Experimental data from ChEMBL document CHEMBL1240375, “Identification of a plasmid-borne resistance gene cluster comprising the resistance genes erm(T), dfrK, and tet(L) in a porcine methicillin-resistant Staphylococcus aureus ST398 strain” (2010).
Converted amounts (≈) assume the structure as drawn.

Legend:
Staphylococcus aureus [1] = assay: Antimicrobial activity against Staphylococcus aureus 25 transformant carrying plasmid pKKS25 and expressing erm(T), dfrKtet(L), tet(K), tet(M), mecA and blaZ genes by broth microdilution method
Staphylococcus aureus [2] = assay: Antimicrobial activity against Staphylococcus aureus RN4220 by broth microdilution method; format: functional
Staphylococcus aureus [3] = assay: Antimicrobial activity against Staphylococcus aureus RN4220 transformant carrying plasmid pKKS25 and expressing erm(T), dfrK and tet(L) genes by broth microdilution method; format: functional

Compound | MIC (Staphylococcus aureus [1]) [µg/mL] | MIC (Staphylococcus aureus [2]) [µg/mL] | MIC (Staphylococcus aureus [3]) [µg/mL]
CN(C)[C@@H]1C(O)=C(C(N)=O)C(=O)[C@@]2(O)C(O)=C3C(=O)c4c(O)cccc4[C@@](C)(O)[C@H]3C[C@@H]12 [TETRACYCLINE] | 128 (≈ 288 µM) | 0.06 (≈ 0.135 µM) | 32 (≈ 72 µM)
CCN1CCN(c2cc3c(cc2F)c(=O)c(C(=O)O)cn3C2CC2)CC1 [ENROFLOXACIN] | 0.25 (≈ 0.696 µM) | 0.25 (≈ 0.696 µM) | 0.25 (≈ 0.696 µM)
CCC[C@@H]1C[C@@H](C(=O)N[C@@H]([C@H]2O[C@H](SC)[C@H](O)[C@@H](O)[C@H]2O)[C@H](C)Cl)N(C)C1 [CLINDAMYCIN] | ≥ 64 | ≤ 0.12 | ≥ 64
CC1(C)S[C@@H]2[C@H](NC(=O)Cc3ccccc3)C(=O)N2[C@H]1C(=O)O [PENICILLIN G] | 16 (≈ 47.8 µM) | ≤ 0.03 | –
C=C[C@]1(C)C[C@@H](OC(=O)CSC(C)(C)CNC(=O)[C@H](N)C(C)C)[C@]2(C)[C@H](C)CC[C@]3(CCC(=O)[C@H]32)[C@@H](C)[C@@H]1O [VALNEMULIN] | 0.03 (≈ 0.0531 µM) | 0.03 (≈ 0.0531 µM) | 0.03 (≈ 0.0531 µM)
CC1(C)S[C@@H]2[C@H](NC(=O)[C@H](N)c3ccccc3)C(=O)N2[C@H]1C(=O)O [AMPICILLIN] | – | 0.06 (≈ 0.172 µM) | 0.06 (≈ 0.172 µM)
CN[C@@H]1[C@@H](O[C@H]2O[C@H](CO)[C@@H](N)[C@H](O)[C@H]2O)OC2C[C@@H](N)[C@@H](O[C@H]3[C@H](O)[C@@H](O)[C@H](N)C[C@@H]3N)OC2[C@@H]1O (stereo not given in full) [APRAMYCIN] | 4 (≈ 7.41 µM) | 1 (≈ 1.85 µM) | 1 (≈ 1.85 µM)
CC[C@H]1OC(=O)C[C@@H](O)[C@H](C)[C@@H](O[C@@H]2O[C@H](C)[C@@H](O[C@H]3C[C@@](C)(O)[C@@H](O)[C@H](C)O3)[C@H](N(C)C)[C@H]2O)[C@@H](CC=O)C[C@@H](C)C(=O)/C=C/C(C)=C/[C@@H]1CO[C@@H]1O[C@H](C)[C@@H](O)[C@@H](OC)[C@H]1OC.O=C(O)C(O)C(O)C(=O)O [TYLOCIN TARTARATE] | ≥ 64 | 1 | ≥ 64
C=C[C@]1(C)C[C@@H](OC(=O)CSCCN(CC)CC)[C@]2(C)[C@H](C)CC[C@]3(CCC(=O)[C@H]32)[C@@H](C)[C@@H]1O [TIAMULIN] | 0.5 (≈ 1.01 µM) | 0.12 (≈ 0.243 µM) | 0.12 (≈ 0.243 µM)
CN[C@@H]1[C@H](O)[C@H](NC)[C@H]2O[C@@]3(O)C(=O)C[C@@H](C)O[C@H]3O[C@@H]2[C@H]1O [SPECTINOMYCIN] | 64 (≈ 193 µM) | 64 (≈ 193 µM) | 64 (≈ 193 µM)
CC(=O)NC[C@H]1CN(c2ccc(N3CCOCC3)c(F)c2)C(=O)O1 [LINEZOLID] | 0.5 (≈ 1.48 µM) | 0.5 (≈ 1.48 µM) | 0.5 (≈ 1.48 µM)
CC[C@H]1OC(=O)[C@H](C)[C@@H](O[C@H]2C[C@@](C)(OC)[C@@H](O)[C@H](C)O2)[C@H](C)[C@@H](O[C@@H]2O[C@H](C)C[C@H](N(C)C)[C@H]2O)[C@](C)(O)C[C@@H](C)C(=O)[C@H](C)[C@@H](O)[C@]1(C)O [ERYTHROMYCIN] | ≥ 128 | 0.25 (≈ 0.341 µM) | ≥ 128
GENTAMICIN | – | 0.25 | 0.25
COc1cc(Cc2cnc(N)nc2N)cc(OC)c1OC [TRIMETHOPRIM] | ≥ 128 | 0.5 (≈ 1.72 µM) | ≥ 128
O=C(N[C@H](CO)[C@H](O)c1ccc([N+](=O)[O-])cc1)C(Cl)Cl [CHLORAMPHENICOL] | 8 (≈ 24.8 µM) | 4 (≈ 12.4 µM) | 4 (≈ 12.4 µM)
Cc1onc(-c2ccccc2)c1C(=O)N[C@@H]1C(=O)N2[C@@H]1SC(C)(C)[C@@H]2C(=O)O [OXACILLIN] | 8 (≈ 19.9 µM) | 0.06 (≈ 0.149 µM) | 0.06 (≈ 0.149 µM)
